We go through 29 molecules from patent publication US20250262201A1, “COMPOUNDS AND METHODS USEFUL FOR STABILIZING PHENYLALANINE HYDROXYLASE MUTATIONS” (Agios Pharmaceuticals, Inc., priority 2022, published 2025).

The structures appear in SMILES notation. Read-outs that look alike come from different tables or passages of the source. Where only a bound is given, the exact number is not on record here.

The test deals with T1, human PAH with the R408W mutation (Homo sapiens, UniProt P00439, R408W).
T1 construct: expressed in transfected cells
T1 sequence (P00439 1-452 R408W): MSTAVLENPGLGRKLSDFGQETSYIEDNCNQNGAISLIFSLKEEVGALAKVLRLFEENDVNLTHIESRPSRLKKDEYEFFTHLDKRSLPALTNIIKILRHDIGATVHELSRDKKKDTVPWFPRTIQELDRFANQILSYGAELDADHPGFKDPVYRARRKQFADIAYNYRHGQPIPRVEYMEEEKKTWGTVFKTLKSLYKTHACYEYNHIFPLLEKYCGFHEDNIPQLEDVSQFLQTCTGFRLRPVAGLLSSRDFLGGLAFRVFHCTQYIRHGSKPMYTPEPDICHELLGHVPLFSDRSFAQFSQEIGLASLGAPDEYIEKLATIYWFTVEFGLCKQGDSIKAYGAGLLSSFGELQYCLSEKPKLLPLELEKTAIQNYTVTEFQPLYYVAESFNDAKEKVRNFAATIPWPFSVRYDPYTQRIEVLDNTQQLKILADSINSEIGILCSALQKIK
Nature of the test: Cell Based Phenylalanine Flux Assay. Also noted: scale not given here. The settings on record: 13C-Tyrosine by LC-MS, average where tested multiple times.

[1] abbreviates: A375 cells expressing human R408W PAH, 24 hrs compound incubation, read-out: AC50.
Setting [2] is: A375 R408W cells, 24 hrs with compound, then 20 μM sepiapterin and 800 μM 13C9,15N-Phenylalanine for 4 hours, read-out: AC50.
Setting [3] is: A375 R408W cells, 24 hrs with compound, then 20 μM sepiapterin and 800 μM 13C9,15N-Phenylalanine for 4 hours.

With `O=C(c1nnc(-c2ccn(C(F)F)n2)o1)N1CCc2[nH]cnc2[C@H]1c1cc2ccccc2cn1` [Example 426, (R)-(5-(1-(difluoromethyl)-1H-pyrazol-3-yl)-1,3,4-oxadiazol-2-yl)(4-(isoquinolin-3-yl)-6,7-dihydro-1H-imidazo[4,5-c]pyridin-5(4H)-yl)methanone], the AC50 under setting [1] was under 0.5 µM. Take `Cc1ncoc1C(=O)N1CC2(CC2)c2[nH]cnc2C1c1cn2ccccc2n1` (centres unmarked): under setting [2], the AC50 lay in the range of 1 to 5 µM. On to `O=C(c1cnn(CC(F)(F)F)c1Cl)N1CCc2[nH]cnc2C1c1ccc2ccccc2n1` (centres unmarked), for which, under setting [2], the AC50 was 1 to 5 µM. For the molecule `Cn1ncnc1C(=O)N1CCc2[nH]cnc2C1c1ccc2ccccc2n1` (stereo in doubt) [Example 80, (2-methyl-1,2,4-triazol-3-yl)-[(4R)-4-(2-quinolyl)-1,4,6,7-tetrahydroimidazo[4,5-c]pyridin-5-yl]methanone], under setting [1], the AC50 was in the range of 0.5 to 1 µM. Take `Cc1nnc(C(=O)N2CC(C)(C)c3[nH]cnc3C2c2cc3ccccc3cn2)o1` (centres unmarked): under setting [2], the concentration at half-maximal activity (AC50) lay within 1 to 5 µM. As for `O=C(c1cnn2cc(N3CCOCC3)ccc12)N1CCc2[nH]cnc2[C@H]1c1cc2ccccc2cn1` [Example 458, (R)-(4-(isoquinolin-3-yl)-6,7-dihydro-1H-imidazo[4,5-c]pyridin-5(4H)-yl)(6-morpholinopyrazolo[1,5-a]pyridin-3-yl)methanone], the AC50 under setting [1] was under 0.5 µM. Regarding `O=C(C1CN(CC(F)(F)F)C1)N1CCc2[nH]cnc2[C@H]1c1cc2ccccc2cn1` [Example 420, (R)-(4-(isoquinolin-3-yl)-6,7-dihydro-1H-imidazo[4,5-c]pyridin-5(4H)-yl)(1-(2,2,2-trifluoroethyl)azetidin-3-yl)methanone], under setting [1], the AC50 was 1 to 5 µM. For `O=C(CCc1nccs1)N1CCc2[nH]cnc2[C@H]1c1ncc2ccccc2n1` [Example 273, (S)-1-(4-(quinazolin-2-yl)-6,7-dihydro-1H-imidazo[4,5-c]pyridin-5(4H)-yl)-3-(thiazol-2-yl)propan-1-one], the AC50 under setting [1] was under 0.5 µM. The same measure, in the same setting: for `C[C@@H]1CN(C(=O)c2nnc(C(C)(C)F)o2)[C@H](c2cc3ccccc3cn2)c2nc[nH]c21` [Example 501, (5-(2-fluoropropan-2-yl)-1,3,4-oxadiazol-2-yl)((4R,7R)-4-(isoquinolin-3-yl)-7-methyl-6,7-dihydro-1H-imidazo[4,5-c]pyridin-5(4H)-yl)methanone] the value was under 0.5 µM. For `O=C(c1cnc(C2CC2)s1)N1CCc2[nH]cnc2C1c1cn2ccccc2n1` (centres unmarked), the AC50 under setting [2] is 1 to 5 µM. Take `O=C(c1cnc(-c2ccccn2)o1)N1CCc2[nH]cnc2[C@@H]1c1ncc2ccccc2n1` [Example 157, (R)-(2-(pyridin-2-yl)oxazol-5-yl)(4-(quinazolin-2-yl)-6,7-dihydro-1H-imidazo[4,5-c]pyridin-5(4H)-yl)methanone]: the AC50 under setting [1] is over 5 µM. As for `Cc1ncoc1C(=O)N1CCc2[nH]cnc2C1c1cc2ccccc2cn1` (centres unmarked), the AC50 under setting [2] lay within 1 to 5 µM. On to `Nc1cc(C(=O)N2CCc3[nH]cnc3C2c2ccc3ccccc3n2)n(C(F)F)n1` (stereo in doubt) [Example 267, (R)-(3-amino-1-(difluoromethyl)-1H-pyrazol-5-yl)(4-(quinolin-2-yl)-6,7-dihydro-1H-imidazo[4,5-c]pyridin-5(4H)-yl)methanone], for which the AC50 under setting [1] was 0.5 to 1 µM. For `CN(C)CCc1ccc2c(C(=O)N3CCc4[nH]cnc4[C@H]3c3cc4ccccc4cn3)cnn2c1` [Example 468, (R)-(6-(2-(dimethylamino)ethyl)pyrazolo[1,5-a]pyridin-3-yl)(4-(isoquinolin-3-yl)-6,7-dihydro-1H-imidazo[4,5-c]pyridin-5(4H)-yl)methanone], the AC50 under setting [1] is under 0.5 µM. `O=C(CC1CC(F)C1)N1CCc2[nH]cnc2C1c1ccc2ccccc2n1` (stereo in doubt) [Example 54, (S)-2-(3-fluorocyclobutyl)-1-(4-(quinolin-2-yl)-6,7-dihydro-1H-imidazo[4,5-c]pyridin-5(4H)-yl)ethanone]: the AC50 under setting [1] is 1 to 5 µM. With `CC1CN(C(=O)c2oc(-c3ccccn3)nc2C(F)(F)F)C(c2cc3ccccc3cn2)c2nc[nH]c21` [(4S, 7R) diastereomer of (4-(isoquinolin-3-yl)-7-methyl-6,7-], the half-maximal activity concentration (AC50) result under setting [3] is listed as “E, E”. Regarding `O=C(c1nnc(-c2ccc(F)cn2)o1)N1CCc2[nH]cnc2[C@@H]1c1ncc2ccccc2n1` [Example 167, (R)-(5-(5-fluoropyridin-2-yl)-1,3,4-oxadiazol-2-yl)(4-(quinazolin-2-yl)-6,7-dihydro-1H-imidazo[4,5-c]pyridin-5(4H)-yl)methanone], the AC50 under setting [1] fell in the range of 1 to 5 µM. On to `CC(F)(F)c1ncc(C(=O)N2CCc3[nH]cnc3C2c2ccc3ccccc3n2)s1` (stereo in doubt) [Example 39, (R)-(2-(1,1-difluoroethyl)thiazol-5-yl)(4-(quinolin-2-yl)-6,7-dihydro-1H-imidazo[4,5-c]pyridin-5(4H)-yl)methanone], for which the AC50 under setting [1] lay within 0.5 to 1 µM. `Cn1cc(-c2nnc(C(=O)N3CCc4[nH]cnc4[C@@H]3c3ncc4ccccc4n3)o2)cn1` [Example 144, (R)-(5-(1-methyl-1H-pyrazol-4-yl)-1,3,4-oxadiazol-2-yl)(4-(quinazolin-2-yl)-6,7-dihydro-1H-imidazo[4,5-c]pyridin-5(4H)-yl)methanone]: the AC50 under setting [1] was over 5 µM. Turning to `O=C(Cc1nncs1)N1CCc2[nH]cnc2C1c1cn2ccccc2n1` (centres unmarked), under setting [2], the AC50 was over 5 µM. On to `O=C(c1oc(N2CCC(F)CC2)nc1C(F)F)N1CCc2[nH]cnc2[C@H]1c1ncc2ccccc2n1` [Example 280, (S)-(4-(difluoromethyl)-2-(4-fluoropiperidin-1-yl)oxazol-5-yl)(4-(quinazolin-2-yl)-6,7-dihydro-1H-imidazo[4,5-c]pyridin-5(4H)-yl)methanone], for which the AC50 under setting [1] was under 0.5 µM. Turning to `Cn1nc(COC(F)(F)F)cc1C(=O)N1CCc2[nH]cnc2C1c1ccc2ccccc2n1` (centres unmarked), under setting [2], the concentration at half-maximal activity (AC50) is over 5 µM.

Turning to `O=C(c1nnc(-c2cc[nH]n2)o1)N1CCc2[nH]cnc2[C@H]1c1cc2ccccc2cn1` [Example 451, (R)-(5-(1H-pyrazol-3-yl)-1,3,4-oxadiazol-2-yl)(4-(isoquinolin-3-yl)-6,7-dihydro-1H-imidazo[4,5-c]pyridin-5(4H)-yl)methanone], the AC50 under setting [1] is under 0.5 µM. Take `CC(C)(O)c1nc(C(F)(F)F)c(C(=O)N2CCc3[nH]cnc3C2c2ncc3ccccc3n2)o1` (centres unmarked): the AC50 result under setting [3] is “E, E”.

On to `O=C(c1nnc(C2CC(F)(F)C2)o1)N1CCc2[nH]cnc2[C@H]1c1ncc2ccccc2n1` [Example 151, (S)-(5-(3,3-difluorocyclobutyl)-1,3,4-oxadiazol-2-yl)(4-(quinazolin-2-yl)-6,7-dihydro-1H-imidazo[4,5-c]pyridin-5(4H)-yl)methanone], for which the AC50 under setting [1] lay in the range of 0.5 to 1 µM.

On to `O=C(Cn1cncn1)N1CCc2[nH]cnc2C1c1cn2ccccc2n1` (centres unmarked), for which the AC50 under setting [2] is over 5 µM. Turning to `O=C(c1nnc(-c2ccn(C(F)F)n2)o1)N1CCc2[nH]cnc2[C@H]1c1ccc2ccccc2n1` [Example 96], under setting [1], the AC50 is 0.5 to 1 µM. With `O=C(c1nnc(-c2cnn(CC(F)(F)F)c2)o1)N1CCc2[nH]cnc2[C@H]1c1ccc2ccccc2n1` (single isomer, unassigned) [Example 67], the AC50 under setting [1] lay within 0.5 to 1 µM. On to `O=C(c1cnn2cc(Cl)ccc12)N1CCc2[nH]cnc2[C@H]1c1cc2ccccc2cn1` [Example 467, (R)-(6-chloropyrazolo[1,5-a]pyridin-3-yl)(4-(isoquinolin-3-yl)-6,7-dihydro-1H-imidazo[4,5-c]pyridin-5(4H)-yl)methanone], for which, under setting [1], the AC50 is under 0.5 µM.

Usually AC50 stands for the concentration giving half of the maximal activity seen.
